These are literature values, as cited in US20080108695A1, “Method of Treating Asthma, Allergic Rhinitis, and Skin Disorders” (Alcon Manufacturing Ltd., priority 2006, published 2008).

One series deals with neutrophils. Particulars: potency compared with lipoxin A4; literature report of Lee et al.
The target in series [1] is T1, ALXR (formyl peptide receptor FPRL-1) (Homo sapiens, UniProt P25090).
T1 sequence (P25090 1-351): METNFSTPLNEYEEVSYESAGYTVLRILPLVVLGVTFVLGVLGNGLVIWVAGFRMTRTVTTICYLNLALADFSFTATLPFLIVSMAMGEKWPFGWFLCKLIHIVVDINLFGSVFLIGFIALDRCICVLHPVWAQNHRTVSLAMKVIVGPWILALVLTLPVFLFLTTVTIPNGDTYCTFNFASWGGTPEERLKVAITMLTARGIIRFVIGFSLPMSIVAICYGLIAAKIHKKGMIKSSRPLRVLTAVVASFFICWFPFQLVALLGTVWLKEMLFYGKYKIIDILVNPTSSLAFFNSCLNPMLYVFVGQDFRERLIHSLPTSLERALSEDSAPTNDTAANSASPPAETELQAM
The following applies: lipoxin A4 cognate receptor; background statement.

The target in the next series is T2, cysLT1 (Homo sapiens, UniProt Q9Y271).
T2 sequence (Q9Y271 1-337): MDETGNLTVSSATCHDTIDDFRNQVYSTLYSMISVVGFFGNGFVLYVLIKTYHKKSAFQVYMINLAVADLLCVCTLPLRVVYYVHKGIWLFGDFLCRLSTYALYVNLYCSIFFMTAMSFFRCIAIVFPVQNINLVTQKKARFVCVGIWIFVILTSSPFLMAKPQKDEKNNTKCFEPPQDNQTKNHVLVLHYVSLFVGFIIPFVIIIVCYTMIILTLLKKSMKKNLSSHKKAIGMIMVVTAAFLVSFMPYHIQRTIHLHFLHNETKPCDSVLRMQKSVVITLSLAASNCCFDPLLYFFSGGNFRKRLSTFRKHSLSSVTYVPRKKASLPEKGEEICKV
The following applies: high affinity receptor for LTD4; background statement.

For `COC(=O)CCC[C@H](O)[C@H](O)CO` [Compound 1], the “inhibition of LTB4-induced chemotaxis of neutrophils” value in the series with neutrophils is listed as “as potently as lipoxin A4”.

Consider `CCCCC[C@H](O)[C@H](O)CO` [Compound 2], for which, in the series on neutrophils, the “inhibition of LTB4-induced chemotaxis of neutrophils” value is reported as “as potently as lipoxin A4”.

Regarding `CCCCC[C@H](O)/C=C/C=C\C=C\C=C\[C@@H](O)[C@@H](O)CCCC(=O)O` [Lipoxin A4], the “binding affinity for ALXR” value in series [1] is listed as “nM affinity”. Further, the “binding affinity for cysLT1” value on cysLT1 is given as “nM affinity”.
